Laboratory results published in patent US20230293560A1, “METHOD FOR MODULATING THE BLADDER MICROBIOME TO IMPROVE BLADDER HEALTH” (Kimberly-Clark Worldwide, Inc., priority 2020, published 2023).

Legend:
S. anginosus = assay: High throughput assay screening of prebiotics; type: cell-based, Streptococcus anginosus; parameters: key: ++: if growth and fermentation was equal to or greater than the positive control; +: if growth and fermentation was less than the positive control; +: if weak or no growth or fermentation; +^2: Bacteria demonstrated growth but no fermentation on the prebiotic; conditions: 2% w/v prebiotic in API 50 CHL media; for growth and fermentation vs positive control, Sa-2: S. anginosus KC18-1131-3B, Bladder; for growth and fermentation vs positive control, Sa-1: S. anginosus ATCC 33397, Culture Collection
Procedure: (§1) Most of the prebiotic compounds were initially tested in a high throughput assay screening process, described further in the Test Methods section herein, but three prebiotics (as noted in Table 3) were tested using a plate assay screening process as described in the Test Methods section herein. The prebiotics were tested against the commensal bacterial species of Lactobacillus crispatus, Lactobacillus gasseri, and Lactobacillus jensenii and against the pathogenic bacterial species of Streptococcus anginosus and Enterococcus faecalis as shown in Table 2. The bacterial species were taken from different sources, listed as culture collection, bladder, and vagina.
(§2) The results of the assay plate screening of the prebiotic compounds of Table 1 against the bacterial species of Table 2 is documented in Table 3 with the results being described by the following legend: • ++ if growth and fermentation was equal to or greater than the positive control • + if growth and fermentation was less than the positive control • […] if weak or no growth or fermentation • NT if not tested Some codes were not tested based on the use or non-use by the bacteria, as a way to efficiently move through the assay plate screening to the competition assay, described below.
(§3) • 1. Create a 2% w/v stock of prebiotic or positive control (glucose/dextrose) to be tested in API 50 CHL media (Biomerieux, Marcy-I'Étoile, France). API 50 CHL media contains minimal amounts of carbon for growth, and a bromocresol purple as a pH indicator of fermentation. Filter sterilize media with a […]. Store at 4-6° C. until use. • 2. Add 180 μL of media containing the prebiotic to a sterile, flat bottom 96-well microtiter plate (Corning, Corning, NY). • 3. From a freezer stock subculture the bacteria twice into De Man, Rogosa and Sharpe (MRS) broth (BD Difco, Becton Dickinson, Franklin Lakes, NJ), 37° C., stationary, anaerobic, overnight. • 4. From the last subculture, plate onto an MRS agar plate (Teknova, Hollister, CA) and grow 37° C., stationary, anaerobic, overnight. • 5. Create a bacterial suspension by using a sterile tipped swab to transfer colonies of bacteria into a PBS suspension blank to a 0.5 MacFarland (S. anginosus or E. faecalis) or a 1 MacFarland (Lactobacillus species) from the MRS agar plate. • 6. Enumerate the starting culture. • 7. Inoculate the media alone and media containing the prebiotic or positive control with 20 μL of the bacterial suspension. • 8. Place the plate into a spectrophotometer (Molecular Devices, San Jose, CA) and read the plate every 20 minutes for 24-48 hours. Read wavelengths (OD 430, OD 590, and OD 660). A color change to yellow caused by a drop in pH will be read by an increase in the OD430 value and a decrease in the OD590 value and is indicative of bacterial fermentation. An increase in OD660 values is indicative of an increase in turbidity and bacterial growth.

L. gasseri = assay: High throughput assay screening of prebiotics; type: cell-based, Lactobacillus gasseri; parameters: key: ++: if growth and fermentation was equal to or greater than the positive control; +: if growth and fermentation was less than the positive control; +: if weak or no growth or fermentation; +^2: Bacteria demonstrated growth but no fermentation on the prebiotic; conditions: 2% w/v prebiotic in API 50 CHL media; for growth and fermentation vs positive control, Lg-1: L. gasseri KC16-7135-1, Bladder; for growth and fermentation vs positive control, Lg-2: L. gasseri KC16-7171-1, Bladder
Procedure: as §1, §2, §3

E. faecalis = assay: High throughput assay screening of prebiotics; type: cell-based, Enterococcus faecalis; parameters: key: ++: if growth and fermentation was equal to or greater than the positive control; +: if growth and fermentation was less than the positive control; +: if weak or no growth or fermentation; +^2: Bacteria demonstrated growth but no fermentation on the prebiotic; conditions: 2% w/v prebiotic in API 50 CHL media; for growth and fermentation vs positive control, Ef-3: E. faecalis KC17-3969-2B, Bladder; for growth and fermentation vs positive control, Ef-4: E. faecalis KC17-4331-3, Bladder; for growth and fermentation vs positive control, Ef-1: E. faecalis ATCC BAA-2128, Culture Collection; for growth and fermentation vs positive control, Ef-2: E. faecalis KC16-7171-3, Bladder
Procedure: as §1, §2, §3

L. crispatus = assay: High throughput assay screening of prebiotics; type: cell-based, Lactobacillus crispatus; parameters: key: ++: if growth and fermentation was equal to or greater than the positive control; +: if growth and fermentation was less than the positive control; +: if weak or no growth or fermentation; +^2: Bacteria demonstrated growth but no fermentation on the prebiotic; conditions: 2% w/v prebiotic in API 50 CHL media; for growth and fermentation vs positive control, Lc-4: L. crispatus KC18-1174-1, Vagina; for growth and fermentation vs positive control, Lc-1: L. crispatus ATCC 33820, Culture Collection; for growth and fermentation vs positive control, Lc-2: L. crispatus KC16-7134-3C, Bladder; for growth and fermentation vs positive control, Lc-3: L. crispatus KC18-1173-1, Bladder
Procedure: as §1, §2, §3

[1] = tested on: commensal and pathogenic bacterial species; assay: Prebiotic screening, summary in words across species; type: cell-based; conditions: commensal (L. crispatus, L. gasseri, L. jensenii) and pathogenic (S. anginosus, E. faecalis) species
Procedure: as §1, §2, §3
• 1. An in house bacterial agar was created based on MRS agar (Kaplan and Hutkins, 2000) where the glucose is substituted for the prebiotic to be tested (either dextran MW ˜6,000, alpha-cyclodextrin, glucomannan, or pectin), bromocresol purple was included as a pH indicator. • 2. Bacteria were enumerated on each agar and color changes were recorded. Method for Competition Assay (Modified from “In Vitro Evaluation of Nutrients that Selectively Confer a Competitive Advantage to Lactobacilli” Vongsa et al, Beneficial Microbes 2016) • 1. Create 2% w/v stock of prebiotic or positive control (glucose/dextrose) as described above. • 2. From a freezer stock subculture the bacteria twice into De Man, Rogosa and Sharpe (MRS) broth (BD Difco, Becton Dickinson, Franklin Lakes, NJ), 37° C., stationary, anaerobic, overnight. • 3. From the last subculture, plate onto an MRS agar plate for L. crispatus KC18-1173-1 or blood agar for S. anginosus KC18-1131-3B, grow 37° C., stationary, anaerobic, overnight. • 4. […]

SMILES	growth and fermentation vs positive control, Sa-2 (S. anginosus)	growth and fermentation vs positive control, Lg-4 (L. gasseri; L. gasseri KC18-1142-2, Bladder)	growth and fermentation vs positive control, Ef-3 (E. faecalis)	growth and fermentation vs positive control, Ef-4 (E. faecalis)	growth and fermentation vs positive control, Lc-4 (L. crispatus)	overall outcome of the screening of Table 3, in words [1]	growth and fermentation vs positive control, Sa-1 (S. anginosus)	growth and fermentation vs positive control, Lg-1 (L. gasseri)	growth and fermentation vs positive control, Lg-2 (L. gasseri)	growth and fermentation vs positive control, Ef-1 (E. faecalis)	growth and fermentation vs positive control, Ef-2 (E. faecalis)	growth and fermentation vs positive control, Lc-1 (L. crispatus)	growth and fermentation vs positive control, Lc-2 (L. crispatus)	growth and fermentation vs positive control, Lc-3 (L. crispatus)
OC[C@H]1O[C@@H](O[C@@H]2[C@@H](CO)OC(O)(CO)[C@H]2O)[C@H](O)[C@@H](O)[C@H]1O (mixture of isomers) [Lactulose]	++	+	+^2	+^2	++	–	–	–	–	–	–	–	–	–
O=C(O)CC(O)C(=O)O (racemic) [DL-Malic acid, DL-Malic acid (Malate)]	–	–	–	–	–	not able to provide growth for most, if not all, commensal and pathogenic bacterial species	–	–	–	–	–	–	–	–
OC[C@H]1O[C@@H](O)[C@H](O)[C@@H](O)[C@@H]1O [Beta-D-glucose, Beta-D-Glucose]	++	–	++	++	++	able to provide growth on the commensal bacterial species, but also provided growth on the pathogenic bacterial species	++	++	++	++	++	++	++	++
CC(=O)N[C@H]1C(O)O[C@H](CO)[C@@H](O)[C@@H]1O (stereo partly shown) [N-Acetylglucosamine]	++	–	++	++	+	able to provide growth on the commensal bacterial species, but also provided growth on the pathogenic bacterial species	++	++	++	++	++	++	+	++
O=C(CO)[C@@H](O)[C@@H](O)[C@H](O)CO [Tagatose]	–	–	++	++	–	–	–	–	–	++	++	–	–	–
OC[C@@H](O)[C@H](O)[C@@H](O)CO [Xylitol]	–	–	–	–	–	not able to provide growth for most, if not all, commensal and pathogenic bacterial species	–	–	–	–	–	–	–	–
